# Data from US20230072421A1, “TARGETED RADIOPHARMACEUTICALS FOR THE DIAGNOSIS AND TREATMENT OF PROSTATE CANCER” (Bayer AS, priority 2019, published 2023).
# Legend:
# C4-2 cells = test: Cell proliferation assay (CellTiter-Glo, 5-day exposure), C4-2; assay type: cell-based; conditions: C4-2, 1000 cells/well, Th-227 labelled at 375 kBq/nmol, mean of 1 to 6 experiments
# In short: (§1)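 Growth inhibition by radiolabelled (Th-227) PSMA small-molecule ligands is measured as ATP luminescence after 5 days of treatment, referenced to a day-0 reading from sister plates. VCaP are seeded at 4000 cells/well, the remaining lines at 1000 cells/well.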
# 22Rv1 cells = test: Cell proliferation assay (CellTiter-Glo, 5-day exposure), 22Rv1; assay type: cell-based; conditions: 22Rv1, 1000 cells/well, Th-227 labelled at 375 kBq/nmol, mean of 1 to 6 experiments
# In short: as §1
# [1] = Biodistribution study in LNCaP tumor-bearing mice (Th227 counted in organs); assay type: in vivo, SCID mice; conditions: 1500 kBq/kg
# Method: (§2) SCID mice were randomly assigned to experimental groups, ten animals per group (efficacy) or n=3-5 per time point of biodistribution study. At the initiation of the study, a testosterone pellet was subcutaneously transplanted, the animals were shaved, tattooed and each cage was labeled with the cage number, study number and number of animals per cage.
# (§3) LNCaP human prostate cancer cells were cultured as described according to the supplier's protocols. Cells were harvested for transplantation in a subconfluent (70%) state. Animals were injected with 5×10^6 LNCaP cells suspended in 100% Matrigel subcutaneously into the flank of the mice.
# Biodistribution study: When tumors reached a predetermined size in mice of ˜50 mm^2 animals were randomized into groups (n=3 animals/time point) and the radioactive compound was once applied intravenously. The i.v. application volume was 100 μl/mice.
# At the predetermined time point, n=3 animals were sacrificed, the organs removed, weight and measured in a Germanium detector to count the Th227 in the sample.
# [2] = tested on: LNCaP human prostate cancer cells; test: LNCaP xenograft efficacy study (T/C tumor area); assay type: in vivo, SCID mice; conditions: Example IV; day 36 after start of therapy; once 1 MBq/kg
# Method: as §2, §3
# Efficacy study: When tumors reached a predetermined size in mice of 35-50 mm^2 animals were randomized into treatment and control groups (n=10 animals/group) and treatment with the defined radioactive dose was started. The i.v. application volume was 100 μl/mice.
# Tumor response was assessed by determination of the tumor area (product of the longest diameter and its perpendicular) using a caliper. The animal body weight was monitored as a measure for treatment-related toxicity. Measurement of tumor area and body weight was performed two to three times weekly.
# Animals were sacrificed when showing signs of toxicity (>20% body weight loss) or when tumors reached a size of approximately 200 mm^2.
# Tumor growth inhibition is presented as T/C ratio (Treatment/Control) calculated with tumor areas when the vehicle control group had to be closed.
# VCaP cells = test: Cell proliferation assay (CellTiter-Glo, 5-day exposure), VCaP; assay type: cell-based; conditions: 4000 cells/well, Th-227 labelled at 375 kBq/nmol, mean of 1 to 6 experiments
# In short: as §1
structure (smiles),measurement,setting,value
Cc1cc(C(=O)NCCN(CCCN(CCNC(=O)c2cc(C)n(CC(=O)O)c(=O)c2[O-])CCNC(=O)c2cc(C)n(CC(=O)NCC3CCC(C(=O)NC(Cc4cnc5ccccc5c4)C(=O)NCCCCC(NC(=O)NC(CCC(=O)O)C(=O)O)C(=O)O)CC3)c(=O)c2[O-])CCNC(=O)c2cc(C)n(CC(=O)NCC3CCC(C(=O)NC(Cc4cnc5ccccc5c4)C(=O)NCCCCC(NC(=O)NC(CCC(=O)O)C(=O)O)C(=O)O)CC3)c(=O)c2[O-])c([O-])c(=O)n1CC(=O)O.[227Th+4] (stereo not drawn) [Example 22-C dimer-227Th],Proliferation assay on cancer cell lines by TTCs Default Pivot #3 IC50 [kBq/mL] C4-2 1000cells 375kBq/nmol (mean),C4-2 cells,2.56 kBq/mL
same,Proliferation assay on cancer cell lines by TTCs Default Pivot #3 IC50 [kBq/mL] 22Rv1 1000cells 375kBq/nmol (mean),22Rv1 cells,0.89 kBq/mL
same,Th-227 in Blood,[1]; 0.25 h,3.35% ID Th-227/g organ
same,Th-227 in Liver,[1]; 0.25 h,1.79% ID Th-227/g organ
same,Th-227 in Spleen,[1]; 0.25 h,13.87% ID Th-227/g organ
same,Th-227 in Tumor,[1]; 0.25 h,4.57% ID Th-227/g organ
same,Th-227 in bone,[1]; 0.25 h,2.50% ID Th-227/g organ
same,Th-227 in brain,[1]; 0.25 h,0.13% ID Th-227/g organ
same,Th-227 in kidney,[1]; 0.25 h,61.44% ID Th-227/g organ
same,Th-227 in large intestine,[1]; 0.25 h,0.87% ID Th-227/g organ
same,Th-227 in lung,[1]; 0.25 h,3.56% ID Th-227/g organ
same,Th-227 in muscle,[1]; 0.25 h,1.27% ID Th-227/g organ
same,Th-227 in prostate,[1]; 0.25 h,5.47% ID Th-227/g organ
same,Th-227 in salivary glands,[1]; 0.25 h,2.63% ID Th-227/g organ
same,Th-227 in small intestine,[1]; 0.25 h,1.64% ID Th-227/g organ
same,Th-227 in Blood,[1]; 1 hr,0.53% ID Th-227/g organ
same,Th-227 in Liver,[1]; 1 hr,0.41% ID Th-227/g organ
same,Th-227 in Spleen,[1]; 1 hr,8.93% ID Th-227/g organ
same,Th-227 in Tumor,[1]; 1 hr,4.49% ID Th-227/g organ
same,Th-227 in bone,[1]; 1 hr,1.12% ID Th-227/g organ
same,Th-227 in brain,[1]; 1 hr,0.01% ID Th-227/g organ
same,Th-227 in kidney,[1]; 1 hr,96.67% ID Th-227/g organ
same,Th-227 in large intestine,[1]; 1 hr,0.23% ID Th-227/g organ
same,Th-227 in lung,[1]; 1 hr,1.30% ID Th-227/g organ
same,Th-227 in muscle,[1]; 1 hr,0.28% ID Th-227/g organ
same,Th-227 in prostate,[1]; 1 hr,1.66% ID Th-227/g organ
same,Th-227 in salivary glands,[1]; 1 hr,0.69% ID Th-227/g organ
same,Th-227 in small intestine,[1]; 1 hr,0.38% ID Th-227/g organ
same,Th-227 in Blood,[1]; 4 hr,0.10% ID Th-227/g organ
same,Th-227 in Liver,[1]; 4 hr,0.60% ID Th-227/g organ
same,Th-227 in Spleen,[1]; 4 hr,1.68% ID Th-227/g organ
same,Th-227 in Tumor,[1]; 4 hr,2.18% ID Th-227/g organ
same,Th-227 in bone,[1]; 4 hr,0.74% ID Th-227/g organ
same,Th-227 in brain,[1]; 4 hr,0.00% ID Th-227/g organ
same,Th-227 in kidney,[1]; 4 hr,45.26% ID Th-227/g organ
same,Th-227 in large intestine,[1]; 4 hr,0.29% ID Th-227/g organ
same,Th-227 in lung,[1]; 4 hr,0.38% ID Th-227/g organ
same,Th-227 in muscle,[1]; 4 hr,0.05% ID Th-227/g organ
same,Th-227 in prostate,[1]; 4 hr,0.20% ID Th-227/g organ
same,Th-227 in salivary glands,[1]; 4 hr,0.36% ID Th-227/g organ
same,Th-227 in small intestine,[1]; 4 hr,0.21% ID Th-227/g organ
same,Th-227 in Blood,[1]; 24 h,0.02% ID Th-227/g organ
same,Th-227 in Liver,[1]; 24 h,078% ID Th-227/g organ
same,Th-227 in Spleen,[1]; 24 h,1.96% ID Th-227/g organ
same,Th-227 in Tumor,[1]; 24 h,2.23% ID Th-227/g organ
same,Th-227 in bone,[1]; 24 h,0.46% ID Th-227/g organ
same,Th-227 in brain,[1]; 24 h,0.00% ID Th-227/g organ
same,Th-227 in kidney,[1]; 24 h,11.35% ID Th-227/g organ
same,Th-227 in large intestine,[1]; 24 h,0.21% ID Th-227/g organ
same,Th-227 in lung,[1]; 24 h,0.25% ID Th-227/g organ
same,Th-227 in muscle,[1]; 24 h,0.00% ID Th-227/g organ
same,Th-227 in prostate,[1]; 24 h,0.02% ID Th-227/g organ
same,Th-227 in salivary glands,[1]; 24 h,0.18% ID Th-227/g organ
same,Th-227 in small intestine,[1]; 24 h,0.10% ID Th-227/g organ
same,Th-227 in Blood,[1]; 96 h,0.00% ID Th-227/g organ
same,Th-227 in Liver,[1]; 96 h,0.31% ID Th-227/g organ
same,Th-227 in Spleen,[1]; 96 h,0.43% ID Th-227/g organ
same,Th-227 in Tumor,[1]; 96 h,0.66% ID Th-227/g organ
same,Th-227 in bone,[1]; 96 h,0.83% ID Th-227/g organ
same,Th-227 in brain,[1]; 96 h,0.00% ID Th-227/g organ
same,Th-227 in kidney,[1]; 96 h,2.18% ID Th-227/g organ
same,Th-227 in large intestine,[1]; 96 h,0.04% ID Th-227/g organ
same,Th-227 in lung,[1]; 96 h,0.16% ID Th-227/g organ
same,Th-227 in muscle,[1]; 96 h,0.00% ID Th-227/g organ
same,Th-227 in prostate,[1]; 96 h,0.00% ID Th-227/g organ
same,Th-227 in salivary glands,[1]; 96 h,0.19% ID Th-227/g organ
same,Th-227 in small intestine,[1]; 96 h,0.04% ID Th-227/g organ
same,T/Carea,[2],0.67
same,Proliferation assay on cancer cell lines by TTCs Default Pivot #3 IC50 [kBq/mL] VCap 4000cells 375kBq/nmol (mean),VCaP cells,3.65 kBq/mL
